Patent US8859491B2 (priority 2011, dated 2014)
pEC50: −log10 of the molar value. Non-standard residues stand in square brackets, D forms with d. No end group written: not given here. Aib = CC(C)(N)C(=O)O

Columns and labels:
[1] = Administration of GLP-1 conjugates to diet induced obese mice (FIGS. 3-10, 12); type: in vivo; settings: for blood glucose levels: FIG. 7b; for change in blood glucose: FIG. 5b, SEQ ID NO: 1647 at high or low doses, SEQ ID NO: 1651 at high dose
[2] = Example 15: DIO mice, daily sc dosing; type: in vivo; settings: high dose, between days 0 and 21
Protocol: Diet-induced obesity (DIO) mice (N=8, average initial body weight=59 g) were subcutaneously injected once per day for four weeks with vehicle or one of the following: […] Blood glucose levels were measured at the 0, 15, 30, 60, and 120 min time points. FIG. 4a presents data from this experiment. Body weight was measured after 21 days and the change in total body weight and fat mass were determined (FIGS. 4b-c).

[3] = Stability analysis in 100% human plasma (estrogen release); settings: 1 mg/mL, pH 7.4, 37° C.
glucocorticoid receptor = target: T1, glucocorticoid receptor (Homo sapiens, UniProt P04150); test: EC50
T1 construct: two clones of HeLa cells (ATCC #CCL-2) transfected with murine mammary tumor virus long terminal repeat-driven firefly luciferase; host or cells: HeLa

[4] = Example 14: DIO mice, daily sc dosing; type: in vivo
Protocol: Diet-induced obesity (DIO) mice (N=8, 6 mice per group, average initial body weight=58 g) were subcutaneously injected once per day for four weeks with vehicle or 4, 40, or 400 μg/kg of one of the following:
A saline solution comprising 25% (v/v) glucose was injected at a dose of 1.5 g/kg of body weight at the 0 min time point on days 7 and 21. Blood glucose was measured at the 0, 15, 30, 60, and 120 min time points on day 7 and day 21 (FIG. 3a).
Body weight was measured after 23 days and the change in body weight, change in fat mass, and change in lean muscle mass were determined (FIGS. 3b-d).

[5] = Example 13: db/db mice, daily sc dosing; type: in vivo
Protocol: Mice (db/db, N=6, average initial body weight=54 g) were subcutaneously injected once per day for four weeks with vehicle or 40 or 400 μg/kg of one of the following:
Body weight was measured after 23 days and the change in body weight was determined (FIG. 2a).

[6] = Administration of GLP-1 conjugates to db/db mice (FIG. 2); type: in vivo; settings: high dose
[7] = high dose, between days 0 and 21, vs GLP-1(Aib2E16Cex K40) (SEQ ID NO: 1647) alone, FIG. 4d
[8] = over a period of 7 days, FIG. 7a
[9] = high dose (400 μg/kg-day), after 23 days
[10] = high dose, between days 0 and 14

T1 sequence (P04150 whole entry, looked up): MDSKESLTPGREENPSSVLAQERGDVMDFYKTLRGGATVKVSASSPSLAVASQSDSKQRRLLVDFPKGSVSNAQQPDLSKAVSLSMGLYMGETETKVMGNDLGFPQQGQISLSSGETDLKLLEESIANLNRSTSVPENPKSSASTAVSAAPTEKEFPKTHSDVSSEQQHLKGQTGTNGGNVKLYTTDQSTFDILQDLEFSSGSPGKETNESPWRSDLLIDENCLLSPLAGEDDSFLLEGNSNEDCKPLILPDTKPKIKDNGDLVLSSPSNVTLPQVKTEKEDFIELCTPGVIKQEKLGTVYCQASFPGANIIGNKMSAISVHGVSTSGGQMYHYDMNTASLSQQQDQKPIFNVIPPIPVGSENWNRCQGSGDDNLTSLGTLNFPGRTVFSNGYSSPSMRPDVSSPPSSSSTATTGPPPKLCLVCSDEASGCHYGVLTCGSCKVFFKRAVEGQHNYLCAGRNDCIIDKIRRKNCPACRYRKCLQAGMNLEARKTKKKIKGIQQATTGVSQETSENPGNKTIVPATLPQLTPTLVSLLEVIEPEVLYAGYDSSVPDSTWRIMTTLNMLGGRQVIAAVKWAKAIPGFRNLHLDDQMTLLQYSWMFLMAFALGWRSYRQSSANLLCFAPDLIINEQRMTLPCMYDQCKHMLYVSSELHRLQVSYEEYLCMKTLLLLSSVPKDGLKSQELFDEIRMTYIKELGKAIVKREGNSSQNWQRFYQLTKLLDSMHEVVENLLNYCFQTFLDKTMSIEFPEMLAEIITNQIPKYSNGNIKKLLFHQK

Q: For “GLP-1(Aib^2E^16K^40Cex)/Estrogen(17-ester) (H[Aib]EGTFTSDVSSYLEEQAAKEFIAWLVKGGPSSGAPPPSK-NH2; not fully specified (residue 40)) [SEQ ID NO: 1655]”, which “change in blood glucose levels” value ([1]; between days 0 and 7, FIG. 6c) is on record?
A: greatest change

Q: And the “change in blood glucose levels” value [1, 7]?
A: greater change

Q: And the total body weight [1, 8]?
A: greatest decrease

Q: And the blood glucose levels ([1]; over a period of 7 days)?
A: greatest decrease

Q: What about the “change in blood glucose levels” value [2] of the same molecule?
A: greater change in blood glucose levels

Q: Which “estrogen release in plasma” value [3] does the source give for CC[C@H](C)[C@H](NC(=O)[C@H](Cc1ccccc1)NC(=O)[C@H](CCC(=O)O)NC(=O)[C@H](CCCCN)NC(=O)[C@H](C)NC(=O)[C@H](C)NC(=O)[C@H](CCC(N)=O)NC(=O)[C@H](CCC(=O)O)NC(=O)[C@H](CCC(=O)O)NC(=O)[C@H](CC(C)C)NC(=O)[C@H](Cc1ccc(O)cc1)NC(=O)[C@H](CO)NC(=O)[C@H](CO)NC(=O)[C@@H](NC(=O)[C@H](CC(=O)O)NC(=O)[C@H](CO)NC(=O)[C@@H](NC(=O)[C@H](Cc1ccccc1)NC(=O)[C@@H](NC(=O)CNC(=O)[C@H](CCC(=O)O)NC(=O)C(C)(C)NC(=O)[C@@H](N)Cc1c[nH]cn1)[C@@H](C)O)[C@@H](C)O)C(C)C)C(=O)N[C@@H](C)C(=O)N[C@@H](Cc1c[nH]c2ccccc12)C(=O)N[C@@H](CC(C)C)C(=O)N[C@H](C(=O)N[C@@H](CCCCN)C(=O)NCC(=O)NCC(=O)N1CCC[C@H]1C(=O)N[C@@H](CO)C(=O)N[C@@H](CO)C(=O)NCC(=O)N[C@@H](C)C(=O)N1CCC[C@H]1C(=O)N1CCC[C@H]1C(=O)N1CCC[C@H]1C(=O)N[C@@H](CO)C(=O)N[C@@H](CCCCNC(=O)CCC(=O)Oc1ccc2c(c1)CC[C@@H]1[C@@H]2CC[C@]2(C)[C@@H](OC(C)=O)CC[C@@H]12)C(N)=O)C(C)C [GLP-1/Estrogen(3-ester)] here?
A: substantial estrogen release after 3 hours

Q: What about the “time to complete estrogen release in plasma” value [3] of the same molecule?
A: ≤ 6 h

Q: With CC[C@H](C)[C@H](NC(=O)[C@H](Cc1ccccc1)NC(=O)[C@H](CCC(=O)O)NC(=O)[C@H](CCCCN)NC(=O)[C@H](C)NC(=O)[C@H](C)NC(=O)[C@H](CCC(N)=O)NC(=O)[C@H](CCC(=O)O)NC(=O)[C@H](CCC(=O)O)NC(=O)[C@H](CC(C)C)NC(=O)[C@H](Cc1ccc(O)cc1)NC(=O)[C@H](CO)NC(=O)[C@H](CO)NC(=O)[C@@H](NC(=O)[C@H](CC(=O)O)NC(=O)[C@H](CO)NC(=O)[C@@H](NC(=O)[C@H](Cc1ccccc1)NC(=O)[C@@H](NC(=O)CNC(=O)[C@H](CCC(=O)O)NC(=O)C(C)(C)NC(=O)[C@@H](N)Cc1c[nH]cn1)[C@@H](C)O)[C@@H](C)O)C(C)C)C(=O)N[C@@H](C)C(=O)N[C@@H](Cc1c[nH]c2ccccc12)C(=O)N[C@@H](CC(C)C)C(=O)N[C@H](C(=O)N[C@@H](CCCCN)C(=O)NCC(=O)NCC(=O)N1CCC[C@H]1C(=O)N[C@@H](CO)C(=O)N[C@@H](CO)C(=O)NCC(=O)N[C@@H](C)C(=O)N1CCC[C@H]1C(=O)N1CCC[C@H]1C(=O)N1CCC[C@H]1C(=O)N[C@@H](CO)C(=O)NC(C(N)=O)C(C)(C)SSCCNC(=O)OCC(=O)[C@@]1(O)[C@H](C)C[C@H]2[C@@H]3CCC4=CC(=O)C=C[C@]4(C)[C@@]3(F)[C@@H](O)C[C@@]21C)C(C)C (stereo partly drawn) [[Aib2, E16]GLP-1-CEX-Pen40(S—SCH2CH2NHCO—O-DEX)] as the molecule, how does the pEC50 (glucocorticoid receptor) read?
A: 4.13

Q: Which results are given for “GLP-1(Aib^2A^22CexK^40)/Estrogen(17-ester): A22 GLP-1 analog conjugated to estrogen by 17-ester (H[Aib]EGTFTSDVSSYLEGQAAKEAIAWLVKGGPSSGAPPPSK-NH2; not fully specified (residue 40))”?
A: change in body weight [4, 9]: greatest decrease in body weight; cumulative food intake ([4]; high dose, 23 days): consumed the least amount of food; change in fat mass ([4]; high dose, after 23 days): greatest decrease in body weight and fat mass; change in lean muscle mass ([4]; high dose, after 23 days): least amount of lean muscle mass loss; change blood glucose [4, 10]: greatest decrease in blood glucose levels; change in body weight [5, 9]: greater decrease in body weight then mice that were administered GLP-1 alone; cumulative food intake ([5]; high dose, 23 days): consumed less food than those that were administered GLP-1 alone; blood glucose levels [5, 10]: greatest decrease in blood glucose levels

Q: For “GLP-1(Aib^2E^16Cex K^40) (H[Aib]EGTFTSDVSSYLEEQAAKEFIAWLVKGGPSSGAPPPSK-NH2) [SEQ ID NO: 1647]”, which “change in blood glucose” value [1] is on record?
A: greatest change

Q: For “d-amino acid containing GLP-1/Estrogen ester conjugate: d-amino acid containing GLP-1/Estrogen conjugate, estrogen covalently linked as ester that was unstable in vivo ([dA][Aib][dE]G[dT][dF][dT][dS][dD][dV][dS][dS][dY][dL][dE]G[dQ][dA][dA][dK][dE][dA][dI][dA][dW][dL][dV][dK]GG[dP][dS][dS]G[dA][dP][dP][dP][dS]K-NH2; not fully specified (residue 40))”, which total body weight ([1]; FIG. 10a) is on record?
A: greatest decrease

Q: And the “change in blood glucose levels” value ([1]; between days 0 and 7, vs comparable d-amino acid peptide with stable estrogen conjugate, FIG. 10b)?
A: greater change

Q: Which “change in blood glucose levels” value ([1]; between days 0 and 7, FIG. 8b) does the source give for “GLP-1(Aib^2E^16Cex K^40)/Estrogen(3-ester) (H[Aib]EGTFTSDVSSYLEEQAAKEFIAWLVKGGPSSGAPPPSK-NH2; not fully specified (residue 40)) [SEQ ID NO: 1658]” here?
A: greatest change

Q: Which results are given for “GLP-1(Aib^2A^22CexK^40)/Estrogen(17-ester) (H[Aib]EGTFTSDVSSYLEGQAAKEAIAWLVKGGPSSGAPPPSK-NH2; not fully specified (residue 40)) [SEQ ID NO: 1656]”?
A: change in body weight ([6]; FIG. 2a): slightly greater decrease in body weight than mice that were administered GLP-1 alone, but similar to vehicle; blood glucose levels ([6]; between days 0 and 14, FIGS. 2b and 2c): greatest decrease; change in body weight ([1]; high dose, FIG. 3b): greatest decrease; change in fat mass ([1]; high dose, FIG. 3c): greatest decrease; change in lean muscle mass ([1]; high dose, FIG. 3d): least amount of change; changes in blood glucose ([1]; high dose, between days 0 and 14, FIG. 3e): greatest decrease

Q: With CC[C@H](C)[C@H](NC(=O)[C@H](Cc1ccccc1)NC(=O)[C@H](CCC(=O)O)NC(=O)[C@H](CCCCN)NC(=O)[C@H](C)NC(=O)[C@H](C)NC(=O)[C@H](CCC(N)=O)NC(=O)[C@H](CCC(=O)O)NC(=O)[C@H](CCC(=O)O)NC(=O)[C@H](CC(C)C)NC(=O)[C@H](Cc1ccc(O)cc1)NC(=O)[C@H](CO)NC(=O)[C@H](CO)NC(=O)[C@@H](NC(=O)[C@H](CC(=O)O)NC(=O)[C@H](CO)NC(=O)[C@@H](NC(=O)[C@H](Cc1ccccc1)NC(=O)[C@@H](NC(=O)CNC(=O)[C@H](CCC(=O)O)NC(=O)C(C)(C)NC(=O)[C@@H](N)Cc1c[nH]cn1)[C@@H](C)O)[C@@H](C)O)C(C)C)C(=O)N[C@@H](C)C(=O)N[C@@H](Cc1c[nH]c2ccccc12)C(=O)N[C@@H](CC(C)C)C(=O)N[C@H](C(=O)N[C@@H](CCCCN)C(=O)NCC(=O)NCC(=O)N1CCC[C@H]1C(=O)N[C@@H](CO)C(=O)N[C@@H](CO)C(=O)NCC(=O)N[C@@H](C)C(=O)N1CCC[C@H]1C(=O)N1CCC[C@H]1C(=O)N1CCC[C@H]1C(=O)N[C@@H](CO)C(=O)NC(CCSSCCNC(=O)OCC(=O)[C@@]1(O)[C@H](C)C[C@H]2[C@@H]3CCC4=CC(=O)C=C[C@]4(C)[C@@]3(F)[C@@H](O)C[C@@]21C)C(N)=O)C(C)C (stereo partly drawn) [[Aib2, E16]GLP-1-CEX-homoCys40(S—SCH2CH2NHCO—O-DEX)] as the molecule, how does the pEC50 (glucocorticoid receptor) read?
A: 4.18

Q: Which “change in blood glucose” value [1] does the source give for “GLP-1(Aib^2E^16K^40Cex)/Estrogen(3-ether) (H[Aib]EGTFTSDVSSYLEEQAAKEFIAWLVKGGPSSGAPPPSK-NH2; not fully specified (residue 40)) [SEQ ID NO: 1651]” here?
A: greatest change

Q: What about the “change in blood glucose levels” value ([1]; between days 0 and 7, FIG. 6c) of the same molecule?
A: greatest change

Q: What about the “change in blood glucose levels” value [1, 7] of the same molecule?
A: greater change

Q: What about the total body weight [1, 8] of the same molecule?
A: greatest decrease

Q: What about the blood glucose levels ([1]; over a period of 7 days) of the same molecule?
A: greatest decrease

Q: And the “change in blood glucose levels” value [2]?
A: greater change in blood glucose levels
